Source: the kinase profiling compilation of Christmann-Franck et al. (2016)

Assays:
Conditions in all cases: compound 10.0 µM
PAK4 (human) = PAK4 (human) (UniProt O96013)
DAPK3 (human) = DAPK3 (human) (UniProt O43293)
CDK17 (human) = CDK17 (human) (UniProt Q00537)
RIOK3 (human) = RIOK3 (human) (UniProt O14730)
MAP4K2 (human) = MAP4K2 (human) (UniProt Q12851)
CAMK1D (human) = CAMK1D (human) (UniProt Q8IU85)
PLK3 (human) = PLK3 (human) (UniProt Q9H4B4)
CAMK2D (human) = CAMK2D (human) (UniProt Q13557)
YSK4 (human) = YSK4 (human) (UniProt Q56UN5)
SRPK3 (human) = SRPK3 (human) (UniProt Q9UPE1)
MAP2K2 (human) = MAP2K2 (human) (UniProt P36507)
RIPK4 (human) = RIPK4 (human) (UniProt P57078)
PKN1 (human) = PKN1 (human) (UniProt Q16512)
PDGFRA (human) = PDGFRA (human) (UniProt P16234)
CSNK1G2 (human) = CSNK1G2 (human) (UniProt P78368)
CDK14 (human) = CDK14 (human) (UniProt O94921)
[1] = test system: FLT3 (human), P36888 [K663Q]
PIM3 (human) = PIM3 (human) (UniProt Q86V86)
[2] = test system: RET (human), P07949 [V804M]
MAPK6 (human) = MAPK6 (human) (UniProt Q16659)
CHEK2 (human) = CHEK2 (human) (UniProt O96017)
RPS6KA1 KD1 (human) = RPS6KA1 KD1 (human) (UniProt Q15418)
MAP3K6 (human) = MAP3K6 (human) (UniProt O95382)
EPHB2 (human) = EPHB2 (human) (UniProt P29323)
CDK7 (human) = CDK7 (human) (UniProt P50613)
TNK1 (human) = TNK1 (human) (UniProt Q13470)
MST1R (human) = MST1R (human) (UniProt Q04912)
[3] = test system: KIT (human), P10721 [V559D/T670I]
MAPK13 (human) = MAPK13 (human) (UniProt O15264)
LATS2 (human) = LATS2 (human) (UniProt Q9NRM7)
RPS6KA1 KD2 (human) = RPS6KA1 KD2 (human) (UniProt Q15418)
NLK (human) = NLK (human) (UniProt Q9UBE8)
MUSK (human) = MUSK (human) (UniProt O15146)
PRKG2 (human) = PRKG2 (human) (UniProt Q13237)
PKMYT1 (human) = PKMYT1 (human) (UniProt Q99640)
IKBKB (human) = IKBKB (human) (UniProt O14920)
[4] = target: JAK1 JH2 pseudokinase (human) (UniProt P23458)
[5] = test system: FLT3 (human), P36888 [R834Q]
CSNK2A1 (human) = CSNK2A1 (human) (UniProt P68400)
SGK3 (human) = SGK3 (human) (UniProt Q96BR1)
PRKD2 (human) = PRKD2 (human) (UniProt Q9BZL6)

Sequence of CAMK1D (human) (Q8IU85 whole entry, looked up): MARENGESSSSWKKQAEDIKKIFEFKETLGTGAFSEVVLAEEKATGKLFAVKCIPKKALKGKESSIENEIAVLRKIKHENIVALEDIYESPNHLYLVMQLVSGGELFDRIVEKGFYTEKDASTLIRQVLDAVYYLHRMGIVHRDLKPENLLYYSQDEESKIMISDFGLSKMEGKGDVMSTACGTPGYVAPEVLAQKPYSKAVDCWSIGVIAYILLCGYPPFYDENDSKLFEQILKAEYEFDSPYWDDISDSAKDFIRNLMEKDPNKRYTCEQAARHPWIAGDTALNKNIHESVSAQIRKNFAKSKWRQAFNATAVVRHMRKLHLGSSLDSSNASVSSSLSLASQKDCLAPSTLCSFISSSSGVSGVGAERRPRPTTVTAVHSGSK
Sequence of MAP3K6 (human) (O95382 whole entry, looked up): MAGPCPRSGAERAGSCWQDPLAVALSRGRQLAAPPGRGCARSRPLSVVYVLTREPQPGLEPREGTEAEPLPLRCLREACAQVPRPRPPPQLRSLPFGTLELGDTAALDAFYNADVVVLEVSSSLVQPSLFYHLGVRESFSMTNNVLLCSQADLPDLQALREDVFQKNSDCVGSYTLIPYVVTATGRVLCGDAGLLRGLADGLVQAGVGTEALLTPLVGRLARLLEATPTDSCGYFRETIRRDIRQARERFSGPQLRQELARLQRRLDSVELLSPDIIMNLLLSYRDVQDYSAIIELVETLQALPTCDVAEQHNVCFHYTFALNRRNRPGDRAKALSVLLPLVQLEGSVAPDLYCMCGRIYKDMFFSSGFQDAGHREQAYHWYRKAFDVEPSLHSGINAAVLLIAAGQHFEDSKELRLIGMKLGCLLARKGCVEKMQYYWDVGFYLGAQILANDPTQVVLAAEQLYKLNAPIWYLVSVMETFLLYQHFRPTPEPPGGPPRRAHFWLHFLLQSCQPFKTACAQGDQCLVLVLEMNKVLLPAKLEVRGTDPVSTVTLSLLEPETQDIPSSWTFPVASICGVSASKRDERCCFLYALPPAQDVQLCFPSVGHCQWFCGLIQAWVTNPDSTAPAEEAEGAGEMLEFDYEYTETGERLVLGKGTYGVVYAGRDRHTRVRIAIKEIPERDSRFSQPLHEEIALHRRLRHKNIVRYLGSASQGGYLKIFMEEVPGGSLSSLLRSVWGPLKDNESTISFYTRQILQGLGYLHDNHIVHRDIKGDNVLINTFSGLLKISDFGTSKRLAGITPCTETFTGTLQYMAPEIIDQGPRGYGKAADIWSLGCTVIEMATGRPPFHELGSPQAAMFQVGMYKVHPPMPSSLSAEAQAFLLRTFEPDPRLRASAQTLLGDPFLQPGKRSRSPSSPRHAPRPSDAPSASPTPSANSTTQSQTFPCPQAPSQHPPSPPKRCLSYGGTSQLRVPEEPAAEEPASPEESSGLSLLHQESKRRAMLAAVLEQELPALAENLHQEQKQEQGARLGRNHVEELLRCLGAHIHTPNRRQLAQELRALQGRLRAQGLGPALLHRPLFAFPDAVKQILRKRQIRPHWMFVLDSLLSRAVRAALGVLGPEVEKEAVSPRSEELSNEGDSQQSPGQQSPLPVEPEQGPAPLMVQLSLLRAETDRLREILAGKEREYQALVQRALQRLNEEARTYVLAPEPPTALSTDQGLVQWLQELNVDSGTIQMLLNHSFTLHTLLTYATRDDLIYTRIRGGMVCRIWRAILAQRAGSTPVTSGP
Sequence of LATS2 (human) (Q9NRM7 whole entry, looked up): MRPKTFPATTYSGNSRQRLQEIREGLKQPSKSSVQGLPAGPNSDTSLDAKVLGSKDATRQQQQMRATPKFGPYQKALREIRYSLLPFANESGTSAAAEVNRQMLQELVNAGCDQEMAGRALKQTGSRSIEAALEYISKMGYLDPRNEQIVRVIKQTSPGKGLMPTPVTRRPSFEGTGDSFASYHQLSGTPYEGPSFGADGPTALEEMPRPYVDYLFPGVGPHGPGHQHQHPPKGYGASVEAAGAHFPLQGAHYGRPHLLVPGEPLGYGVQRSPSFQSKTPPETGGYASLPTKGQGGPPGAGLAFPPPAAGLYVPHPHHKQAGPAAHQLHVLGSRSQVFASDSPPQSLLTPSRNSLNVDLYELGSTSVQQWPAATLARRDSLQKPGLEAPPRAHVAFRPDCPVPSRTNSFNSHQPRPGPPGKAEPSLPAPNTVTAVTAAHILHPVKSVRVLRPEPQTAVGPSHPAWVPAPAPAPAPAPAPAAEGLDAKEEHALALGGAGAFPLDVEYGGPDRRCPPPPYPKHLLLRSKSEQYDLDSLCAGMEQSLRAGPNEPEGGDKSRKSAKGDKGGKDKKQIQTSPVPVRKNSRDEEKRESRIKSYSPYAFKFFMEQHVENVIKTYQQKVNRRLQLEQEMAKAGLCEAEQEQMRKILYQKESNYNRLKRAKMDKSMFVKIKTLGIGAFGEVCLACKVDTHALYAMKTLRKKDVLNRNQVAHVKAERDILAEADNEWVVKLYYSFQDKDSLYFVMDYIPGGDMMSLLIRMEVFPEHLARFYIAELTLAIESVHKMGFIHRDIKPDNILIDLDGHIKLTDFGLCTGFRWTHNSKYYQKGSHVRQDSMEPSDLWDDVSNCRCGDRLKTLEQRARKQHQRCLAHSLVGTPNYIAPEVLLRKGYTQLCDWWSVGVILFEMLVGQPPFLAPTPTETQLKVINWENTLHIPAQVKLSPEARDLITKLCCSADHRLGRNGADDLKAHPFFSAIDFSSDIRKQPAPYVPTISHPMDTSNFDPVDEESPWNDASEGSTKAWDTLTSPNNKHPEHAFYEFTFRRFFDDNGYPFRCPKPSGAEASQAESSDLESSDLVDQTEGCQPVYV
Sequence of CHEK2 (human) (O96017 whole entry, looked up): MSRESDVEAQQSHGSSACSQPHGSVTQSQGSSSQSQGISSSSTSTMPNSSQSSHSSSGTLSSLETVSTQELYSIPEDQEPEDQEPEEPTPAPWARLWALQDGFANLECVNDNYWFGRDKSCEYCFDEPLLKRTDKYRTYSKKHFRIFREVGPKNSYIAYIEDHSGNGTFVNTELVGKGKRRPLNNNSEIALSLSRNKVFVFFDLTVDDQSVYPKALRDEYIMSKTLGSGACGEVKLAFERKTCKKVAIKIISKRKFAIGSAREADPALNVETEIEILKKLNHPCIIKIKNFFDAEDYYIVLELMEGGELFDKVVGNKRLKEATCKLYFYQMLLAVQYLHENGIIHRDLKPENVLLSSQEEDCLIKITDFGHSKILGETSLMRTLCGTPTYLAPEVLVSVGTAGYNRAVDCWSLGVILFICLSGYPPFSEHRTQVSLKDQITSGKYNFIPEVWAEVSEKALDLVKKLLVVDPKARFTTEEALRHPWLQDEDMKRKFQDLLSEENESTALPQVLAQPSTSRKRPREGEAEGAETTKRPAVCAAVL
Sequence of RIPK4 (human) (P57078 whole entry, looked up): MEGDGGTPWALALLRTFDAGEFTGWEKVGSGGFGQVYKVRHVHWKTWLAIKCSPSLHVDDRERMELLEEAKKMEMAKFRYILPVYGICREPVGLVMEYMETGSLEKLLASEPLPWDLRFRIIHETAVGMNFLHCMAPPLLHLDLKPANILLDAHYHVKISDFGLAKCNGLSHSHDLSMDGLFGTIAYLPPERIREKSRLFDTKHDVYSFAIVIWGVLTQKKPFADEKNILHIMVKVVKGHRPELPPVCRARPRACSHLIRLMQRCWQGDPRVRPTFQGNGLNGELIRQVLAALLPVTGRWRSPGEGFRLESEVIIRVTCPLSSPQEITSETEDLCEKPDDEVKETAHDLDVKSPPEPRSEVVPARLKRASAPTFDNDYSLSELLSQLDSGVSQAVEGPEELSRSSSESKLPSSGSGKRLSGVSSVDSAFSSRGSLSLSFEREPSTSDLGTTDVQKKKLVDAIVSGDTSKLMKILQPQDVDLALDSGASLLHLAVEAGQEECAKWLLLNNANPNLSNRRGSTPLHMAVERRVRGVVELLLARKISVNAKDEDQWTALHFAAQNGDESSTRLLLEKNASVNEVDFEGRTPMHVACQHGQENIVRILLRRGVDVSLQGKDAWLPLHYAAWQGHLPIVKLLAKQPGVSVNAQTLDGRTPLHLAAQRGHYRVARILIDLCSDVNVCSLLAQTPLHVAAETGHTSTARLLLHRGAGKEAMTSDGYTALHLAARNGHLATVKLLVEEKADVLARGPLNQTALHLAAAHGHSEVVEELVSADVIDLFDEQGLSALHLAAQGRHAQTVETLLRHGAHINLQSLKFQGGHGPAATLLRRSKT
Sequence of IKBKB (human) (O14920 whole entry, looked up): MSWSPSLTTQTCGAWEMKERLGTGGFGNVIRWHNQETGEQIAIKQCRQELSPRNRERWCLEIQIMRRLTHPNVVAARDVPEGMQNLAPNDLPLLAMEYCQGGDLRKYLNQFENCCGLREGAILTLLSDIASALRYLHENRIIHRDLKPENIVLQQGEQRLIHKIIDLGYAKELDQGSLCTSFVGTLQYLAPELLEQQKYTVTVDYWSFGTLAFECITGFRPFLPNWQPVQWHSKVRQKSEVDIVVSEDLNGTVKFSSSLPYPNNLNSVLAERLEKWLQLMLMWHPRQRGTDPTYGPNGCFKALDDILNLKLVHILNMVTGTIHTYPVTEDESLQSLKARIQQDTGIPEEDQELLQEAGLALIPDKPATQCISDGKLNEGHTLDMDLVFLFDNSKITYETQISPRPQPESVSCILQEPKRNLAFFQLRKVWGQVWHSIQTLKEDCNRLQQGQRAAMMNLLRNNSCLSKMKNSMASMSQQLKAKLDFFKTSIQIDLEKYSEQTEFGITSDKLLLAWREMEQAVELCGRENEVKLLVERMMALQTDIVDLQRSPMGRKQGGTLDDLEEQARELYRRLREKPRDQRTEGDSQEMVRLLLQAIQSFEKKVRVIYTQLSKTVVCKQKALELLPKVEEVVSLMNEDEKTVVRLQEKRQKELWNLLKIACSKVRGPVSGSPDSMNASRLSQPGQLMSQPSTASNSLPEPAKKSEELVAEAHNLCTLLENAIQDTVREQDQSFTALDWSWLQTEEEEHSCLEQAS

In the case of `CNC(=O)c1cc(Oc2ccc(NC(=O)Nc3ccc(Cl)c(C(F)(F)F)c3)cc2)ccn1`, the per cent of control (PAK4 (human)) is reported as 100%, the per cent of control (DAPK3 (human)) is reported as 94% and the per cent of control (CDK17 (human)) is reported as 13%. For the same molecule, the per cent of control (RIOK3 (human)) was 88%, the per cent of control (MAP4K2 (human)) was 93% and the per cent of control (CAMK1D (human)) was 88%. The per cent of control (PLK3 (human)) was 100%, the per cent of control (CAMK2D (human)) was 89% and the per cent of control (YSK4 (human)) was 0%. It also gave a per cent of control (SRPK3 (human)) of 84%, a per cent of control (MAP2K2 (human)) of 88% and a per cent of control (RIPK4 (human)) of 100%. For the same molecule, the per cent of control (PKN1 (human)) was 100%, the per cent of control (PDGFRA (human)) was 0% and the per cent of control (CSNK1G2 (human)) was 100%. The per cent of control (CDK14 (human)) was 3.1%, the per cent of control [1] was 0.25% and the per cent of control (PIM3 (human)) was 100%. It also gave a per cent of control [2] of 0%, a per cent of control (MAPK6 (human)) of 94% and a per cent of control (CHEK2 (human)) of 63%. It also gave a per cent of control (RPS6KA1 KD1 (human)) of 84%, a per cent of control (MAP3K6 (human)) of 72% and a per cent of control (EPHB2 (human)) of 12%. It also gave a per cent of control (CDK7 (human)) of 3.2%, a per cent of control (TNK1 (human)) of 14% and a per cent of control (MST1R (human)) of 76%. For the same molecule, the per cent of control [3] was 0%, the per cent of control (MAPK13 (human)) was 21% and the per cent of control (LATS2 (human)) was 100%. For the same molecule, the per cent of control (RPS6KA1 KD2 (human)) was 77%, the per cent of control (NLK (human)) was 19% and the per cent of control (MUSK (human)) was 0%. The per cent of control (PRKG2 (human)) was 100%, the per cent of control (PKMYT1 (human)) was 93% and the per cent of control (IKBKB (human)) was 100%. For the same molecule, the per cent of control [4] was 97%, the per cent of control [5] was 12% and the per cent of control (CSNK2A1 (human)) was 100%. For the same molecule, the per cent of control (SGK3 (human)) was 72% and the per cent of control (PRKD2 (human)) was 100%.
Work on `CNC(=O)c1cc(Oc2ccc(NC(=O)Nc3ccc(Cl)c(C(F)(F)F)c3)cc2)cc[n+]1[O-]` yielded a per cent of control (PAK4 (human)) of 100%, a per cent of control (DAPK3 (human)) of 100% and a per cent of control (CDK17 (human)) of 7.7%. It also gave a per cent of control (RIOK3 (human)) of 73%, a per cent of control (MAP4K2 (human)) of 66% and a per cent of control (CAMK1D (human)) of 75%. For the same molecule, the per cent of control (PLK3 (human)) was 100%, the per cent of control (CAMK2D (human)) was 87% and the per cent of control (YSK4 (human)) was 0.1%. For the same molecule, the per cent of control (SRPK3 (human)) was 86%, the per cent of control (MAP2K2 (human)) was 84% and the per cent of control (RIPK4 (human)) was 100%. The per cent of control (PKN1 (human)) was 97%, the per cent of control (PDGFRA (human)) was 0% and the per cent of control (CSNK1G2 (human)) was 100%. The per cent of control (CDK14 (human)) was 3.8%, the per cent of control [1] was 0.2% and the per cent of control (PIM3 (human)) was 100%. It also gave a per cent of control [2] of 0%, a per cent of control (MAPK6 (human)) of 100% and a per cent of control (CHEK2 (human)) of 21%. The per cent of control (RPS6KA1 KD1 (human)) was 91%, the per cent of control (MAP3K6 (human)) was 64% and the per cent of control (EPHB2 (human)) was 19%. For the same molecule, the per cent of control (CDK7 (human)) was 5%, the per cent of control (TNK1 (human)) was 6.6% and the per cent of control (MST1R (human)) was 30%. For the same molecule, the per cent of control [3] was 0%, the per cent of control (MAPK13 (human)) was 0.55% and the per cent of control (LATS2 (human)) was 100%. For the same molecule, the per cent of control (RPS6KA1 KD2 (human)) was 58%, the per cent of control (NLK (human)) was 11% and the per cent of control (MUSK (human)) was 0.2%. It also gave a per cent of control (PRKG2 (human)) of 100%, a per cent of control (PKMYT1 (human)) of 100% and a per cent of control (IKBKB (human)) of 61%. The per cent of control [4] was 96%, the per cent of control [5] was 9% and the per cent of control (CSNK2A1 (human)) was 94%. The per cent of control (SGK3 (human)) was 42% and the per cent of control (PRKD2 (human)) was 83%.
